# Laboratory results reported in patent US9381203B2, “Combination therapies for treatment of laminopathies, cellular aging, and atherosclerosis” (priority 2013, dated 2016).
# System: HGPS patients
# Experiment: Kaplan-Meier survival analysis of treated vs. untreated HGPS patients
# Format: in vivo, human
# From the text: Survival data of untreated subjects was collected from hospital case studies, newspaper articles, and other publicly available databases. “Untreated subjects” were defined as HGPS-diagnosed subjects who had no exposure to HGPS clinical treatment trial medications. In total, data from 155 subjects; including 100 deceased and 55 living, was used in the analysis, the cut-off date for which was Dec. 3, 2012.
# “Treated subjects” were defined as all subjects who were enrolled in one or both of two HGPS farnesyltransferase inhibitor (FTI) clinical treatment trials to date, for any length of time. Treatment conditions for the initial, FTI-only, trial are described in Gordon et al., PNAS, 109:16666/16671, 2012. Treatment conditions for the three-drug combination of lonafarnib, pravastatin, and zoledronic acid, are described in Example 1. In total data from 43 subjects; including 4 deceased and 39 living, was included in the analysis.
# Kaplan-Meier survival analyses were carried out using SAS statistical analysis software.
compound,measurement,setting,value
"NC(=O)N1CCC(CC(=O)N2CCC([C@H]3c4ncc(Br)cc4CCc4cc(Cl)cc(Br)c43)CC2)CC1 [FTI, lonafarnib]","Mean years of survival, treated vs. untreated","all subject groupings of FIG. 5, FTI only or with pravastatin and zoledronic acid",significant increase in mean years of survival
same,Survival of treated vs. untreated patients (Kaplan-Meier),"entire sample, 43 treated (FTI only or with pravastatin and zoledronic acid) vs. 155 untreated, FIG. 1",significant survival benefit
